# Experimental data taken from patent US12433954B2, “Methods of activating anti-CD19 chimeric antigen receptor (CAR) T cells using amphiphilic ligand conjugates comprising CAR-targeting protein sequence motifs” (Massachusetts Institute of Technology, priority 2020, dated 2025).
# Ends that are not written are not given here.
# Key:
# [1] = system: FMC63 CAR T cells; experiment: Long-term in vivo boosting, CAR T expansion in peripheral blood; details: day 13; vaccinations day 2 and day 9 with 25 μg cyclic-di-GMP; lymphodepleted mice; vs control mice
# Source text: FIG. 19A depicts a timeline for administration of CD45.1+ donor FMC63 CAR T cells to CD45.2+ recipient mice on Day 1 following lymphodepletion on day 0. The mice were further administered a first dose of amph-mimotope or bivalent amph-mimotope on Day 2 and a second dose on Day 9. Peripheral blood was obtained from the mice on Day 13 and expansion of CD45.1+ CAR T cells were quantified by flow cytometry. FIG. 19B provides plots measuring the percentage of total T cells expressing CD45.1 and FMC63 CAR in peripheral blood isolated on day 13 from mice treated according to FIG. 19A. […] Control mice received no vaccination. […] Briefly, CD45.2^+ recipient mice received lymphodepeletion preconditioning (sublethal irradiation, 500cGy) on day 0. The mice were then administered 1×10^6 CD45.1^+ donor FMC63 CAR T cells on day 1, followed by two vaccinations on day 2 and day 9 using the following formulation: • (i) 10 ug of monovalent amph-mimotope (Amph-K-C2)+25 μg of cyclic-di-GMP in 1×PBS; or • (ii) 20 ug of amph-Bi-F12-mimotope (PEG4 or PEG8)+25 μg of cyclic-di-GMP in 1×PBS. Control mice received no vaccination. On day 13, peripheral blood was collected for analysis of CAR T expansion in response to amph-mimotope vaccine boosting by flow cytometry. CAR T cells were defined as CD45.1^+CAR^+ cells and were quantified as proportion of total CD8+ T cells.
# [2] = target: FMC63 IgG; experiment: Yeast clone staining with biotinylated FMC63 IgG, Kd from MFI (FACS); type: binding, mouse; details: yeast clones, 0.01-1000 nM biotinylated FMC63 IgG
# Source text: In order to validate specific sequences, clones were isolated and measured for their affinity to FMC63. Specifically, a subset of mimotope clones were selected from the fixed library sequence described in Example 5.
# [3] = target: FMC63 scFv; experiment: Yeast clone staining with biotinylated FMC63 scFv, Kd by FACS; type: binding, mouse; details: yeast clones, biotinylated FMC63 scFv monomer
# Method: FIGS. 10A & 10B provide graphs showing binding of yeast clones expressing the indicated mimotopes to biotinylated FMC63 IgG (FIG. 10A) or biotinylated FMC63 scFv (FIG. 10B) at increasing concentration (0.01-1000 nM).
# Identifying specific mimotope clones of varying affinities will provide flexibility in treatments. In order to validate specific sequences, clones were isolated and measured for their affinity to FMC63. Specifically, a subset of mimotope clones were selected from the fixed library sequence described in Example 5. […] Given the FDA-approved CAR is an scFV derived from the parental IgG, mimotope binding to FMC63-scFv monomer was tested using biotinylated FMC63 scFV to measure Kd by FACS (FIG. 10B). […] This screen positively identified mimotope clones with varying affinities to FMC63 which may be used for a tailored vaccine approach.
# Chain of FMC63 scFv (as listed by the source): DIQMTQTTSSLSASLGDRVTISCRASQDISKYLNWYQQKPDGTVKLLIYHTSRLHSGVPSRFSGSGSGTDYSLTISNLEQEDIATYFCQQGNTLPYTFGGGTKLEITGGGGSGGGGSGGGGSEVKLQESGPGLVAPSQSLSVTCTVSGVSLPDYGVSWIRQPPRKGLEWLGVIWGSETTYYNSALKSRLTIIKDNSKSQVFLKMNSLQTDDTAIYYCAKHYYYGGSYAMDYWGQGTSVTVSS
# Chain of FMC63 IgG (as listed by the source): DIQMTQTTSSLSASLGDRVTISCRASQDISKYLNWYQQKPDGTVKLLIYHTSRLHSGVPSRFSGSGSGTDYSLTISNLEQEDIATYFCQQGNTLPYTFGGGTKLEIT
# Chain of FMC63 IgG (as listed by the source): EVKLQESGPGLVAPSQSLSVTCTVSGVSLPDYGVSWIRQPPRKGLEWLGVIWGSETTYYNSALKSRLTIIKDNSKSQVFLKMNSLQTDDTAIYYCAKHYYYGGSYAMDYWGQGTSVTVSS
Kd [2],Kd [3],Substance,expansion of CAR T cells (CD45.1+CAR+ of total CD8+ T cells) in peripheral blood [1]
,,amph-bi-F12-peg8 (GGGSASRICPWNCKEL; not fully specified (C-terminus); cysteine pairing not given here; also: bivalent amphiphile conjugate via C-terminal PEG8 linker),highest level of proliferation
> 1000 nM,> 1000 nM,D12 (RICPWSCRAP; Synthetic FMC63 Mimotope (D12)) [Clone D12],
